Like-named read-outs stand apart in the source and are kept apart here.
Legend:
mGPR65 = biological target: T1, mGPR65 (Mus musculus, UniProt Q61038); experiment: cAMP detection in HeLa expression cell line, mGPR65; assay type: cell-based; settings: for Emax: HeLa, relative to 100uM forskolin (100%) and DMSO (0%), read-out: mGPR Max Activity %; for EC50: mGPR EC50 (uM)
T1 construct: expressed in transfected cells; host or cells: HeLa (ATCC CCL-2), lentiviral transduction, pLX317
In short: (§1)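 HeLa cells stably expressing C-terminally V5-tagged receptor or GFP (lentiviral, puromycin 3 μg/ml) stimulated at 1500 cells per well for 30 min at RT with compound (10 mM DMSO stock) in stimulation buffer at pH 7.2. cAMP detected by Lance Ultra TR-FRET after lysis and 1 h detection, excitation 337 nm, emission 620/665 nm.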

[1] = Solubility in phosphate buffer; assay type: physicochemical; settings: read-out: Solubility
hGPR65 [2] = biological target: T2, hGPR65 (Homo sapiens, UniProt Q8IYL9); experiment: cAMP detection in HeLa expression cell line, hGPR65; assay type: cell-based; settings: for Emax: HeLa, relative to 100uM forskolin (100%) and DMSO (0%), read-out: hGPR Max Activity %
T2 construct: expressed in transfected cells; host or cells: HeLa (ATCC CCL-2), lentiviral transduction, pLX317
T2 sequence (Q8IYL9 whole entry): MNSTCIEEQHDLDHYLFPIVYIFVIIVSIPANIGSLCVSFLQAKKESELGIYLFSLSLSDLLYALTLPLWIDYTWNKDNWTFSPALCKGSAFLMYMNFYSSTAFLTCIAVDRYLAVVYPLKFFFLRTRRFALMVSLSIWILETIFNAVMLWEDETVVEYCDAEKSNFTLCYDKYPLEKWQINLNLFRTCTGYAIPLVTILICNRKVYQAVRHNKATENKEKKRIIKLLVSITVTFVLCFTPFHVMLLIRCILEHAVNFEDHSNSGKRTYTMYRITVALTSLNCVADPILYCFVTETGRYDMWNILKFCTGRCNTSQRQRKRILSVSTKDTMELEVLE
In short: as §1

Lipophilicity (logD) = assay type: physicochemical; settings: pH 7.4; pH7.4; read-out: LogD (pH7.4)
hGPR65 [3] = biological target: T2, hGPR65; experiment: cAMP detection (Lance Ultra), GPR65 KO HeLa reconstituted with hGPR65; 21K screen dose confirmation; assay type: cell-based; settings: HeLa GPR65 KO + hGPR65, pH 7.1, 30 min, normalized to DMSO and 100 μM forskolin; read-out: WT EC50
Description: (§2) The Lance Ultra cAMP Kit (PerkinElmer, TRF0264) was used for cAMP detection, and included the following reagents: ULight anti-cAMP antibody, Eu-cAMP tracer, 7.5% BSA Stabilizer solution, and cAMP detection buffer. Stimulation buffer was prepared as described by the kit manufacturer as follows: Hanks buffered saline solution (HBSS, Life Technologies, 14025-126) containing 0.5 mM IBMX (3-isobutyl-1-methylxanthine, Sigma-Aldrich, I7018) and buffered with 1 M Hepes (15630-080). Stimulation buffer was then adjusted to pH 7.1 using 12 N HCl. HeLa cells were lifted using Versene and then suspended at 2.5 × 10^5 cells/ml in stimulation buffer. Cells were then plated at 20 μl per well (5000 cells per well) in white, opaque OptiPlate 384-well MicroPlates (PerkinElmer, 6007299) using a Thermo Fisher Scientific Combi liquid dispenser. Compounds, stored at 5 mM in DMSO for the primary screen, or in a range of concentrations from 39 μM to 20 mM for dose curves, were transferred by the CyBio CyBi-Well Vario pin transfer tool with 100-nl pins (V&P FP1NS50H, 50-nl slot, 0.457-mm diameter, hydrophobic coated), into each assay well, 100 nl per well for a final assay concentration of 25 μM for the primary screen, or 195 nM to 100 μM for dose curves. Assay plates were then incubated at RT for 30 min. Eu-cAMP tracer was diluted 1:33 into detection buffer and the final solution then distributed into assay wells, 5 μl per well. ULight anti-cAMP antibody was diluted 1:100 into detection buffer, then distributed into assay wells, also 5 μl per well. Assay plates were then incubated at RT in the dark for 1 hour. Eu-cAMP tracer and Förster resonance energy transfer (FRET) emissions were then read using a PerkinElmer EnVision Multimode plate reader (ENVISION21040010), exciting each well at 320 nm [UV2 (TRF) 320 filter] and reading emissions at 615 nm (Europium 615 filter) and 665 nm (APC665 filter). Data analysis was performed using Genedata Screener and GraphPad Prism.
(§3) HeLa KO cell lines were generated using the px330 plasmid CRISPR system as previously described ([18]). Briefly, HeLa cells were transfected with a Cas9 vector containing a gene-specific single-guide RNA to target the GPR65 coding exon. Forty-eight to 72 hours after transfection, single clones were obtained through limiting dilution and then sequenced to validate the KO. Reconstituted cell lines were produced by transducing KO cells with empty lentivirus or lentivirus containing hGPR65 or mGPR65. After 48 hours, cells were treated with puromycin (3 μg/ml; InvivoGen, ant-pr-1) and resistant cells were used in experiments.

[4] = system: GPR65 KO HeLa cells + pLX empty vector; experiment: cAMP detection, GPR65 KO HeLa + empty pLX vector (null control); assay type: cell-based, human; settings: HeLa GPR65 KO + pLX, pH 7.1, 30 min, normalized to DMSO and 100 μM forskolin
Description: as §2, §3

hGPR65-SmBiT = biological target: T3, hGPR65-SmBiT (Homo sapiens, UniProt Q8IYL9); experiment: Nano-BiT target engagement, LgBiT-mGs recruitment to hGPR65-SmBiT in Expi293F cells; assay type: cell-based; settings: isoproterenol treatment
T3 construct: expressed in transfected cells; host or cells: Expi293F (Gibco), transient transfection
T3 sequence (Q8IYL9 whole entry): as above
Description: Target engagement was measured in Expi293F (Gibco, 100044202) cells using the Nano-Glo Live Cell Assay System (Promega, N2011). Nano-BiT plasmids were cloned from GPR65-, GPR4-, and GPR68-Tango plasmids. GPR65-Tango (Addgene plasmid # 66370; http://n2t.net/addgene:66370; RRID:Addgene_66370), GPR4-Tango (Addgene plasmid # 66358; http://n2t.net/addgene:66358; RRID:Addgene_66358), and GPR68-Tango (Addgene plasmid # 66371; http://n2t.net/addgene:66371; RRID:Addgene_66371) were gifts from Bryan Roth. Expi293F cells were transfected 1 day before kinetics with 500 ng of each plasmid using ExpiFectamine 293 Transfection Kit (Gibco, A14525). After 24 hours, cells were collected, washed, and resuspended in room temperature 0.1% PBS-BSA, adjusted to pH 7.4 using 1 M NaOH. Cells were transferred to white opaque 96-well microplates (100 μl per well, PerkinElmer, 6005290), followed by addition of the Nano-Glo Live Cell Reagent (25 μl per well). Baseline luminescence was measured for 10 cycles (1 cycle = 90 s) before adding compounds. All luminescence measurements were made on BMG Labtech PHERAstar FSX. Data analysis was performed using GraphPad Prism.

[5] = 2nd mGPR column pair, NA = no activity

T1 sequence (Q61038 whole entry): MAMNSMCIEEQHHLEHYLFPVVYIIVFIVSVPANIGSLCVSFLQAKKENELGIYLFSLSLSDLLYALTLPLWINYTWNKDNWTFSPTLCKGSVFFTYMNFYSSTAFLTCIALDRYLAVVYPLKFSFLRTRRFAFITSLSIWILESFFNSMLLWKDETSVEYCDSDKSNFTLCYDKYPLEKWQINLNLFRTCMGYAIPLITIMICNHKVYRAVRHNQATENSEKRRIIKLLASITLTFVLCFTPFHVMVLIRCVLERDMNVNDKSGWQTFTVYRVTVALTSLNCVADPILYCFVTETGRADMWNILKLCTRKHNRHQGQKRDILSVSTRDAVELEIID

Structure (SMILES)	EC50 (hGPR65 [3]) [µM]	EC50 [4] [µM]	further results
Cc1ccc(NC(=O)c2cnn3c(O)cc(-c4ccc(COC(C)C)cc4)nc23)cc1F [BRD5078, O=C(NC1=CC=C(C)C(F)=C1)C2=C3N(N=C2)C(O)=CC(C4=CC=C(COC(C)C)C=C4)=N3]	–	–	activity for mGPR65 among prioritized molecules (mGPR65; 1.56 μM, pH 7.2): highest activity; Emax (mGPR65; [5]): 51.5%; Emax (mGPR65; NA = no activity): 53.6%; EC50 (mGPR65; [5]): 0.944 µM; EC50 (mGPR65; first pair of columns, pH 7.2, 30 min): 0.477 µM; EC50 (mGPR65; second pair of columns, pH 7.2, 30 min): 0.29 µM; EC50 (mGPR65; NA = no activity): 0.332 µM; cAMP activity, mGPR65 (mGPR65; pH 7.2): at least 40%; solubility [1]: < 1.56 µM; activity for hGPR65 (hGPR65 [2]): strong activity for hGPR65; activity for hGPR65 among prioritized molecules (hGPR65 [2]; 1.56 μM, pH 7.2): highest activity; Emax (hGPR65 [2]; 1st hGPR column pair, NA = no activity): 80.5%; Emax (hGPR65 [2]; 2nd hGPR column pair, NA = no activity): 73.3%; EC50 (hGPR65 [2]; hGPR EC50 (uM), NA = no activity): 0.229 µM; EC50 (hGPR65 [2]; hGPR EC50 (uM), pH 7.2, 30 min): 0.347 µM; EC50 (hGPR65 [2]; hGPR EC50, NA = no activity): 0.351 µM; EC50 (hGPR65 [2]; hGPR EC50, pH 7.2, 30 min): 0.264 µM; cAMP activity, hGPR65 (hGPR65 [2]; pH 7.2): at least 40%; logD (Lipophilicity (logD)): > 4.96
Cn1ccc2c(-c3cccc(=O)[nH]3)ccnc21 [BRD-K33217544-001-03-3]	91.8	89.8	–
O=C(CN1CCC(c2ccncc2)CC1)N1CCOCC1 [BRD-K33295678-001-02-9]	> 100	> 100	–
CCCOc1cc2c(cc1CN(C)Cc1cc(=O)[nH]c3ccccc13)OCO2 [BRD-K37392365-001-02-8]	> 100	> 100	–
N#Cc1cnc(SCc2cc(=O)[nH]c3ccccc23)nc1N [BRD-K39252032-001-02-5]	> 100	67.6	–
Cn1c(=O)n(C)c2cc(NC(=O)CSc3ncc(C#N)c(N)n3)ccc21 [BRD-K40764399-001-02-3]	> 100	> 100	–
O=C(O)CCCc1nc(-c2cccnc2)no1 [BRD-K41365409-001-02-6]	41.3	35.7	–
COc1ccc(NC(=O)CSc2nc3ccc(C)cc3cc2C#N)cc1 [BRD-K45250069-001-02-7]	> 100	> 100	–
O=C(O)C1CCN(c2ncnc3ccccc23)CC1 [BRD-K45393828-001-02-7]	54.4	39.5	–
COc1ccc(Nc2nnc(-c3ccc(C(N)=O)cc3)c3ccccc23)cc1 [BRD-K46612369-001-11-5]	> 100	> 100	–
c1ccc(-c2cc3ncnc(N4CCSCC4)c3s2)cc1 [BRD-K51028315-001-02-0]	> 100	> 100	–
CCc1cc(CC)c2sc3ccccc3c(=O)c2c1 [BRD-K51520769-001-02-7]	> 100	> 100	–
O=C(O)c1nccnc1C(=O)N1CCCN(c2c(Cl)cncc2Cl)CC1 [BRD-K53955368-001-02-8]	> 100	> 100	–
NC(=O)C1CCN(C(=O)CN2CCN(c3ccnc4cc(Cl)ccc34)CC2)CC1 [BRD-K56344229-001-02-1]	15.6	12.5	–
COC(=O)c1cc2c(s1)-c1cc(F)ccc1OC2 [BRD-K56384677-001-09-9]	90	94.3	–
CN(Cc1ccc2ncccc2c1)C(=O)[C@@H]1C[C@H](N)CN1C [BRD-K56675411-001-02-6]	70.2	57.3	–
Cc1nccn1-c1ccc(CN(Cc2cccnc2)C2CC(C)(C)NC(C)(C)C2)cc1 [BRD-K56921026-001-02-1]	57	50.8	–
O=C(CN1CCC(c2ccncc2)CC1)NCc1cccs1 [BRD-K63268990-001-02-0]	> 100	> 100	–
O=c1[nH]c2ccccc2c2oc(-c3ccccc3)nc12 [BRD-K66733191-001-02-7]	91.2	71	–
COc1ccc(C(=O)c2cn(CC(=O)Nc3nc4c(s3)CCCC4)c3cnccc23)cc1 [BRD-K74442183-001-02-5]	< 30	< 30	–
O=C(Nc1cccc2nsnc12)c1sc2ccccc2c1Cl [BRD-K76966415-001-02-1]	< 30	< 30	–
O=C(Cn1nnc(-c2ccccc2NC(=O)c2ccccc2)n1)NC1CCCCC1 [BRD-K79778627-001-02-1]	> 100	73.7	–
Cc1ccc(C(=O)Cn2c(=O)n(C(C)C)c3nc(-c4ccc(F)cc4)nc(C(N)=O)c32)cc1 [BRD-K81805280-001-02-6]	> 100	> 100	–
Cc1cc2c(cc1-c1cncn1CCN(C)C1CCCC1)n(C)c(=O)n2C [BRD-K91081402-001-02-5]	> 100	> 100	–
O=C(c1cc2c([nH]c1=O)CCC2)N1CCN(c2ccnc3cc(Cl)ccc23)CC1 [BRD-K91175373-001-02-0]	20.1	16.9	–
Cn1cc(C(=O)c2ccc(F)cc2)c2ccnc(Cl)c21 [BRD-K96864761-001-02-4]	48.1	44.5	–
CC(C)NCC(O)c1ccc(O)c(O)c1 (stereo not shown) [isoproterenol, reference compound]	–	–	luminescence in hGPR65-SmBiT/LgBiT-mGs cells (hGPR65-SmBiT): did not elicit a change in luminescence

Reference: PMC11259170, “Small-molecule probe for IBD risk variant GPR65 I231L alters cytokine signaling networks through positive allosteric modulation” (Science Advances, 2024)
